Data published in patent US9512087B2, “Hybrid molecules containing pharmacophores of fluconazole as antifungal agents and their preparation” (Council for Scientific & Industrial Research, priority 2011, dated 2016).
≈ marks a conversion by molar mass, not a printed value.

Columns and labels:
Assay in all cases: Antifungal MIC, broth dilution
A. niger ATCC 16404 = type: cell-based, Aspergillus niger; conditions: Aspergillus niger, ATCC16404, RPMI 1640 with MOPS, end point 48 hours, read-out: An01 MIC50
Method: (§1) The compounds of Formula 1 were tested for antifungal activity against Candida albicans, Aspergillus niger and Fusarium proliferatum. In vitro evaluation of antifungal activity was performed by determining the minimum inhibitory concentration (MIC) following standard methods (CLSI: Reference method for broth dilution antifungal susceptibility testing of yeasts; Approved standard, second edition M27-A2, 2002; CLSI: Reference method for broth dilution antifungal susceptibility testing of filamentous fungi; Approved standard M38-A, 2002). Anti-fungal susceptibility testing of these anti-fungal compounds was done by broth dilution method using RPMI 1640 medium with MOPS buffer. Known anti-fungal agents like fluconazole and amphotericin-B were used as positive control. End points were determined after 48 hours visually and by using spectrophotometer wherever necessary. Different dilutions were tried and various sets of experiments performed. The activity parameters are enumerated in Table 5.

C. glabrata ATCC 90030 = type: cell-based; conditions: Nakaseomyces glabratus, ATCC90030, RPMI 1640 with MOPS, end point 48 hours, read-out: Cg01 MIC50
C. albicans ATCC 24433 = type: cell-based, Candida albicans; conditions: Candida albicans, ATCC24433, RPMI 1640 with MOPS, end point 48 hours; for MIC80: read-out: Ca01 A: MIC80; for MIC50: read-out: Ca01 B: MIC50
Method: as §1

A. fumigatus ATCC 46645 = type: cell-based; conditions: Aspergillus fumigatus, ATCC46645, RPMI 1640 with MOPS, end point 48 hours, read-out: Afm01 MIC50
C. krusei ATCC 6258 = type: cell-based; conditions: Pichia kudriavzevii, ATCC6258, RPMI 1640 with MOPS, end point 48 hours, read-out: Ck01 MIC50
[1] = tested on: F. proliferatum ATCC 10052; type: cell-based, Fusarium proliferatum; conditions: Fusarium proliferatum, ATCC10052, RPMI 1640 with MOPS, end point 48 hours, read-out: Fp01 MIC50
Method: as §1

C. tropicalis ATCC 750 = type: cell-based; conditions: Candida tropicalis, ATCC750, RPMI 1640 with MOPS, end point 48 hours, read-out: Ct01 MIC50
C. neoformans ATCC 34664 = type: cell-based; conditions: Cryptococcus neoformans, ATCC34664, RPMI 1640 with MOPS, end point 48 hours, read-out: Cn01 MIC50

SMILES	MIC50 (A. niger ATCC 16404)	MIC50 (C. glabrata ATCC 90030)	MIC80 (C. albicans ATCC 24433)	MIC50 (C. albicans ATCC 24433)	MIC50 (A. fumigatus ATCC 46645)	MIC50 (C. krusei ATCC 6258)	MIC50 [1]	MIC50 (C. tropicalis ATCC 750)	MIC50 (C. neoformans ATCC 34664)
O=C(c1ccc(OCC(O)(Cn2cncn2)c2ccc(F)cc2F)cc1)C(Br)C(Br)c1ccc(Cl)cc1Cl (stereo not drawn) [Compound 1B-1, 2,3-Dibromo-3-(2,4-dichlorophenyl)-1-(4-(2-(2,4-difluorophenyl)-2-hydroxy-3-(1H-1,2,4-triazol-1-yl)propoxy)phenyl)propan-1-one]	> 8 µg/mL	0.5 µg/mL (≈ 0.724 µM)	0.5 µg/mL (≈ 0.724 µM)	0.25 µg/mL (≈ 0.362 µM)	> 8 µg/mL	2 µg/mL (≈ 2.9 µM)	> 8 µg/mL	1 µg/mL (≈ 1.45 µM)	0.5 µg/mL (≈ 0.724 µM)
Cc1ccc(C(=O)/C=C/c2ccc(OCC(O)(Cn3cncn3)c3ccc(F)cc3F)cc2)cc1 (stereo not drawn) [Compound 1A-21]	> 4 µg/mL	0.25 µg/mL (≈ 0.526 µM)	0.25 µg/mL (≈ 0.526 µM)	0.12 µg/mL (≈ 0.252 µM)	8 µg/mL (≈ 16.8 µM)	2 µg/mL (≈ 4.21 µM)	> 4 µg/mL	1 µg/mL (≈ 2.1 µM)	1 µg/mL (≈ 2.1 µM)
O=C(/C=C/c1ccc2ccccc2c1)c1ccc(OCC(O)(Cn2cncn2)c2ccc(F)cc2F)cc1 (stereo not drawn) [Compound 1A-14]	> 4 µg/mL	0.5 µg/mL (≈ 0.977 µM)	0.5 µg/mL (≈ 0.977 µM)	0.25 µg/mL (≈ 0.489 µM)	> 4 µg/mL	1 µg/mL (≈ 1.95 µM)	> 4 µg/mL	0.5 µg/mL (≈ 0.977 µM)	0.5 µg/mL (≈ 0.977 µM)
COc1ccc(C(=O)/C=C/c2ccc(OCC(O)(Cn3cncn3)c3ccc(F)cc3F)c(OC)c2)cc1 (stereo not drawn) [Compound 1A-23]	> 4 µg/mL	1 µg/mL (≈ 1.92 µM)	0.5 µg/mL (≈ 0.959 µM)	0.5 µg/mL (≈ 0.959 µM)	> 4 µg/mL	2 µg/mL (≈ 3.83 µM)	> 4 µg/mL	0.5 µg/mL (≈ 0.959 µM)	1 µg/mL (≈ 1.92 µM)
